Data taken from patent EP0488169A1, “Beta-Hydroxyethylamines with a 1,1-disubstituted cyclopropyl-group, process for their preparation and use” (HOECHST AKTIENGESELLSCHAFT, priority 1990, dated 1992).

What was measured:
[1] = tested on: Trichophyton Mentagrophytes; assay: Fungicidal (killing) effect on resting stages (microconidia) of Trichophyton Mentagrophytes, overnight incubation in aqua dest., survival after wash-out; assay type: cell-based; conditions: read-out: Fungizidie (pilzabtötende Wirkung)
Description: Die Fungizide (pilzabtötende Wirkung) der Verbindungendes Typs der Formel I wird bestimmt, indem Ruhestadien (Vermehrungsform ist gleich Mikrokonidien) des Pilzes Trichophyton Mentagrophytes in aqua dest. über Nacht inkubiert werden. Nach Auswaschen des Präparats (vgl. H. Hänel und W. Raether in mycoses 31 (3), 148-154 (1988)) wird auf Überleben der Pilze geprüft.
Einige auf diese Weise bestimmte Werte sind in Tabelle 4 wiedergegeben (Vergleichspräparat ist Rilopirox).

[2] = tested on: Phospholipase aus Leberzellen; conditions: phospholipase from liver cells; Biochem. Pharmacol. 34, 521-24, 1985; cited from earlier work
Candida albicans = assay: Systemic Candida albicans infection in the mouse, survival time, combination therapy with Fluconazol; assay type: in vivo, Maus; conditions: for Überlebenszeit (bez. auf Fluconazol = 100 %): mice infected i.v. with C. albicans, Fluconazol 9 x p.o. 50 mg/kg/day, combination partner 14 x p.o. 50 mg/kg/day
Description: Als Beispiele für die systemische in vivo-Wirksamkeit der Verbindungen dient die systemische Candida albicans Infektion bei der Maus.
Ziel dieser Methode ist es, den Effekt von Präparaten auf eine systemische Candida albicans Infektion zu ermitteln. Die Infektion führt innerhalb von 2-4 Tagen zum Tod der Tiere.
Beschreibung der Methode: Albino Mäuse (NMRI, Männchen, 15-20 g Körpergewicht) werden intravenös mit Candida albicans Hefezellen infiziert (Stamm 200/175), die frisch auf Malzagar vorkultiviert wurden und in physiologischer Kochsalzlösung suspendiert wurden. Die Infektionsdosis, die in dem angegebenen Zeitrahmen zur Lethalität führt, wurde photometrisch eingestellt und enthielt eine Million Hefezellen pro Maus.
Die zu prüfenden Verbindungen werden entweder alleine oder in Kombination mit einem Standardantimykotikum verabreicht. Im durchgeführten Test wurde ein Kombinationspräparat verwendet, wobei als Standardantimykotikum Fluconazol (Fa. Pfizer) diente. Applikationswege sind je nach Substanzgruppe unterschiedlich, wobei der oralen Applikation der Vorzug gegeben wird. Die Mäuse werden 4 Wochen beobachtet, die Mortalität wird täglich registriert, und die Überlebenszeiten der einzelnen Gruppen werden gemittelt und untereinander verglichen. Gruppengröße beträgt durchschnittlich 10 Tiere.
Der Vergleich der Mittelwerte geschieht mit dem Students T Test.
Dosierungen: Fluconazol jeweils 9 x p.o. 50 mg/kg/Tag Kombinationspartner jeweils 14 x p.o. 50 mg/kg /Tag

Row | Compound | killing at 10 µg/mL [1] [%] | killing at 20 µg/mL [1] [%] | killing at 40 µg/mL [1] [%] | killing at 80 µg/mL [1] [%] | Hemmwirkung [2] | Überlebenszeit (bez. auf Fluconazol = 100 %) (Candida albicans) [%] | Verlängerung der Überlebenszeit (Candida albicans; combination therapy with Fluconazol versus Fluconazol monotherapy, compound 14 x 50 mg/kg p.o. once daily) [%] | killing at 5 µg/mL [1] [%]
1 | CCCCNCC(O)(c1ccc(Cl)cc1)C1(SCc2ccc(C(C)(C)C)cc2)CC1 (stereo not shown) [Verbindung 1.29] | 99.7 | 100 | 100 | 100 |  |  |  | 
2 | CC(C)(C)NCC(O)(c1ccc(Cl)cc1)C1(SCc2ccc(C(C)(C)C)cc2)CC1 (stereo not shown) [Verbindung 1.36] | 96.5 | 100 | 100 | 100 |  |  |  | 
3 | CCCCNCC(O)(c1ccc(C)cc1)C1(SCc2cccc(C(F)(F)F)c2)CC1 (stereo not shown) [Verbindung 1.48] | 99.4 | 100 | 100 | 100 |  |  |  | 
4 | CC(C)NCC(O)COc1cccc2ccccc12 (stereo not shown) [Propranolol] |  |  |  |  | wirksamste Substanz |  |  | 
5 | OC(Cn1cncn1)(Cn1cncn1)c1ccc(F)cc1F [Fluconazol, reference compound] |  |  |  |  |  | 100 |  | 
6 | CCCCNCC(O)(c1ccc(Cl)cc1)C1(SCc2ccc(Cl)cc2)CC1 (stereo not shown) [Verbindung 1.4] |  |  |  |  |  | 157 | 57 | 
7 | CC(C)(C)NCC(O)(c1ccc(Cl)cc1)C1(SCc2ccc(Cl)cc2F)CC1 (stereo not shown) [Verbindung 1.44] | 99.1 | 100 | 100 | 100 |  |  |  | 
8 | CC(C)OCCCNCC(O)(c1ccc(Cl)cc1)C1(SCc2ccc(C(C)(C)C)cc2)CC1 (stereo not shown) [Verbindung 1.35] | 100 | 100 | 100 | 100 |  |  |  | 99.3
9 | Cc1cc(COc2ccc(Oc3ccc(Cl)cc3)cc2)n(O)c(=O)c1 [Rilopirox, reference compound] | 100 | 100 | 100 | 100 |  |  |  | 96.2
10 | CC(C)NCC(O)(c1ccc(Cl)cc1)C1(SCc2cccc(C(F)(F)F)c2)CC1 (stereo not shown) [Verbindung 1.17] | 96.9 | 100 | 100 | 100 |  |  |  | 
